Assay results as given in patent publication US9743666B2, “Herbicidal composition comprising flazasulfuron and an inhibitor of protoporphyrinogen oxidase” (ISHIHARA SANGYO KAISHA, LTD., priority 2011, dated 2017).
Read-outs that look alike come from different tables or passages of the source.

Key:
[1] = tested on: black nightshade (Solanum nigrum L.); test: Test Example 9: pot test, soil treatment of black nightshade; format: in vivo; details: 28th day after treatment, read-out: Growth inhibition rate (%) of black nightshade, Measured value
[2] = tested on: wild oat (Avena fatua L.); test: Test Example 5: pot test, soil treatment of wild oat, 13th day; format: in vivo; details: soil treatment one day after sowing, 13th day after treatment; for inhibition at 25 g/ha / inhibition at 50 g/ha: Avena fatua, 24 h, read-out: Growth inhibition rate (%) of wild oat, Measured value
[3] = tested on: sunn-hemp (Crotalaria juncea L.); test: Test Example 15: pot test, soil treatment of sunn-hemp; format: in vivo; details: 28th day after treatment
[4] = tested on: black nightshade (Solanum nigrum L.); test: Test Example 2: pot test, foliar treatment of black nightshade; format: in vivo
[5] = tested on: rostrate sesbania (Sesbania rostrata Bremek. & Oberm.); test: Test Example 14: pot test, soil treatment of rostrate sesbania, 14th day; format: in vivo; details: 14th day after treatment
[6] = tested on: wild oat (Avena fatua L.); test: Test Example 17: pot test, soil treatment of wild oat, 14th day; format: in vivo; details: 14th day after treatment, read-out: Growth inhibition rate (%) of wild oat, Measured value
[7] = tested on: wild oat (Avena fatua L.); test: Test Example 16: pot test, soil treatment of wild oat, 28th day; format: in vivo
corn (Zea mays L.) = test: Test Example 18: pot test, soil treatment of corn; format: in vivo; details: 14th day after treatment, read-out: Growth inhibition rate (%) of corn, Measured value
[8] = tested on: velvetleaf (Abutilon theophrasti Medic.); test: Test Example 8: pot test, soil treatment of velvetleaf; format: in vivo; details: 28th day after treatment, read-out: Growth inhibition rate (%) of velvetleaf, Measured value
[9] = tested on: persian speedwell (Veronica persica Poir.); test: Test Example 1: pot test, foliar treatment of persian speedwell; format: in vivo; details: read-out: Growth inhibition rate (%) of persian speedwell, Measured value
[10] = tested on: shattercane (Sorghum bicolor (L.) Moench); test: Test Example 20: pot test, soil treatment of shattercane; format: in vivo; details: 14th day after treatment, read-out: Growth inhibition rate (%) of shattercane, Measured value
[11] = tested on: common lambsquarters (Chenopodium album L.); test: Test Example 4: pot test, foliar treatment of common lambsquarters; details: read-out: Growth inhibition rate (%) of lambsquarters, Measured value
[12] = tested on: bermudagrass (Cynodon dactylon (L.) Pers.); test: Test Example 11: pot test, foliar treatment of bermudagrass, 3.8 to 4.3 leaf-stage; format: in vivo; details: read-out: Growth inhibition rate (%) of bermudagrass, Measured value
[13] = tested on: persian speedwell (Veronica persica Poir.); test: Test Example 12: pot test, foliar treatment of persian speedwell, 4.0 to 4.3 leaf-stage; format: in vivo; details: read-out: Growth inhibition rate (%) of persian speedwell, Measured value
[14] = tested on: japanese millet (Echinochloa esculenta (A. Braun) H. Scholz.); test: Test Example 13: pot test, soil treatment of japanese millet; format: in vivo
[15] = tested on: sunn-hemp (Crotalaria juncea L.); test: Test Example 7: pot test, soil treatment of sunn-hemp; format: in vivo
[16] = tested on: ivy-leaved morningglory (Ipomoea hederacea Jacq.); test: Test Example 19: pot test, soil treatment of ivy-leaved morningglory; format: in vivo; details: 14th day after treatment, read-out: Growth inhibition rate (%) of ivy-leaved morningglory, Measured value
[17] = tested on: rostrate sesbania (Sesbania rostrata Bremek. & Oberm.); test: Test Example 6: pot test, soil treatment of rostrate sesbania, 28th day; format: in vivo; details: 28th day after treatment
[18] = tested on: bermudagrass (Cynodon dactylon (L.) Pers.); test: Test Example 10: pot test, foliar treatment of bermudagrass, 2.2 to 2.5 leaf-stage; format: in vivo; details: read-out: Growth inhibition rate (%) of bermudagrass, Measured value
[19] = tested on: sticky chickweed (Cerastium glomeratum Thuill.); test: Test Example 3: pot test, foliar treatment of sticky chickweed; format: in vivo; details: read-out: Growth inhibition rate (%) of sticky chickweed, Measured value
[20] = dose 50 g/ha, 2.2 to 2.5 leaf-stage, 28th day after treatment
[21] = Crotalaria juncea, soil, read-out: Growth inhibition rate (%) of sunn-hemp, Measured value

Molecule: COc1cc(OC)nc(NC(=O)NS(=O)(=O)c2ncccc2C(F)(F)F)n1 [Flazasulfuron, 1-(4,6-dimethoxypyrimidin-2-yl)-3-(3-trifluoromethyl-2-pyridylsulfonyl)urea]
- inhibition at 50 g/ha ([1]; dose 50 g/ha): 85%
- inhibition at 25 g/ha [2]: 40%
- inhibition at 50 g/ha ([2]; dose 50 g/ha): 70%
- inhibition at 25 g/ha ([3]; Crotalaria juncea, dose 25 g/ha, read-out: Growth inhibition rate (%) of sunn-hemp, Measured value): 0%
- inhibition at 50 g/ha ([4]; Solanum nigrum, dose 50 g/ha, 3.2 to 3.5 leaf-stage, 21st day after treatment, read-out: Growth inhibition rate (%) of black nightshade, Measured value): 74%
- dose required to completely suppress growth of black nightshade ([4]; flazasulfuron alone): ≥ 50 g/ha
- inhibition at 50 g/ha ([5]; Sesbania, dose 50 g/ha, read-out: Growth inhibition rate (%) of rostrate sesbania, Measured value): 50%
- inhibition at 25 g/ha ([6]; dose 25 g/ha): 30%
- inhibition at 12.5 g/ha ([7]; Avena fatua, dose 12.5 g/ha, soil treatment, 28th day after treatment, read-out: Growth inhibition rate (%) of wild oat, Measured value): 20%
- inhibition at 25 g/ha ([7]; Avena fatua, dose 25 g/ha, soil treatment, 28th day after treatment, read-out: Growth inhibition rate (%) of wild oat, Measured value): 75%
- inhibition at 12.5 g/ha (corn (Zea mays L.); dose 12.5 g/ha): 70%
- inhibition at 50 g/ha ([8]; dose 50 g/ha): 88%
- inhibition at 100 g/ha ([8]; dose 100 g/ha): 88%
- inhibition at 25 g/ha ([9]; dose 25 g/ha, 7 to 8 leaf-stage, 21st day after treatment): 10%
- inhibition at 12.5 g/ha ([10]; dose 12.5 g/ha): 0%
- inhibition at 1.6 g/ha [11]: 3%
- inhibition at 12.5 g/ha ([12]; dose 12.5 g/ha, 3.8 to 4.3 leaf-stage, 28th day after treatment): 15%
- inhibition at 25 g/ha ([13]; dose 25 g/ha, 4.0 to 4.3 leaf-stage, 28th day after treatment): 0%
- inhibition at 50 g/ha ([14]; Echinochloa esculenta, dose 50 g/ha, soil treatment, 14th day after treatment, read-out: Growth inhibition rate (%) of japanese millet, Measured value): 80%
- inhibition at 50 g/ha ([15]; Crotalaria juncea, dose 50 g/ha, soil treatment, 28th day after treatment, read-out: Growth inhibition rate (%) of sunn-hemp, Measured value): 55%
- inhibition at 50 g/ha ([16]; dose 50 g/ha): 60%
- inhibition at 12.5 g/ha ([17]; Sesbania, dose 12.5 g/ha, read-out: Growth inhibition rate (%) of rostrate sesbania, Measured value): 25%
- inhibition at 50 g/ha [18, 20]: 75%
- inhibition at 100 g/ha ([18]; dose 100 g/ha, 2.2 to 2.5 leaf-stage, 28th day after treatment): 75%
- inhibition at 6.3 g/ha ([19]; dose 6.3 g/ha, 3.3 to 4.0 leaf-stage, 21st day after treatment): 92%

Molecule: oxadiargyl
- Growth inhibition rate (%) of wild oat, Measured value ([2]; dose 50 g/ha): 5%
- Growth inhibition rate (%) of wild oat, Measured value ([2]; dose 800 g/ha): 20%
- Growth inhibition rate (%) of sunn-hemp, Measured value ([15]; dose 400 g/ha, soil treatment, 28th day after treatment): 40%
- Growth inhibition rate (%) of rostrate sesbania, Measured value ([17]; dose 400 g/ha): 20%

Molecule: CC(C)=C1OC(=O)N(c2cc(OC3CCCC3)c(Cl)cc2F)C1=O [Pentoxazone, pentoxazone]
- inhibition at 250 g/ha ([7]; Avena fatua, soil, read-out: Growth inhibition rate (%) of wild oat, Measured value): 0%
- inhibition at 100 g/ha ([14]; Echinochloa esculenta, soil, read-out: Growth inhibition rate (%) of japanese millet, Measured value): 0%

Molecule: COC(=O)CSc1cc(/N=c2\sc(=O)n3n2CCCC3)c(F)cc1Cl [Fluthiacet-methyl, fluthiacet-methyl]
- inhibition at 50 g/ha ([3]; Crotalaria juncea, dose 50 g/ha, read-out: Growth inhibition rate (%) of sunn-hemp, Measured value): 0%
- inhibition at 5 g/ha ([5]; Sesbania, dose 5 g/ha, read-out: Growth inhibition rate (%) of rostrate sesbania, Measured value): 0%

Molecule: C#CCN(C)c1c(C#N)cnn1-c1nn2c(c1Cl)CCCC2 [Pyraclonil, pyraclonil]
- Growth inhibition rate (%) of wild oat, Measured value ([7]; dose 250 g/ha, soil treatment, 28th day after treatment): 40%
- Growth inhibition rate (%) of japanese millet, Measured value ([14]; dose 100 g/ha, soil treatment, 14th day after treatment): 30%

Molecule: CCOC(=O)COc1cc(-c2nn(C)c(OC(F)F)c2Cl)c(F)cc1Cl [Pyraflufen-ethyl, pyraflufen-ethyl]
- inhibition at 2.5 g/ha ([4]; Solanum nigrum, read-out: Growth inhibition rate (%) of black nightshade, Measured value): 88%
- inhibition at 10 g/ha [9]: 43%
- inhibition at 40 g/ha [12]: 0%
- inhibition at 80 g/ha [13]: 80%
- inhibition at 10 g/ha [15, 21]: 20%
- inhibition at 50 g/ha [15, 21]: 45%
- inhibition at 10 g/ha [19]: 58%

Molecule: Cc1nn(-c2cc(NS(C)(=O)=O)c(Cl)cc2Cl)c(=O)n1C(F)F [Sulfentrazone, sulfentrazone]
- inhibition at 500 g/ha ([3]; Crotalaria juncea, dose 500 g/ha, read-out: Growth inhibition rate (%) of sunn-hemp, Measured value): 30%
- inhibition at 25 g/ha ([8]; dose 25 g/ha): 20%
- inhibition at 50 g/ha [18, 20]: 30%

Molecule: C#CCN1C(=O)COc2cc(F)c(N3C(=O)C4=C(CCCC4)C3=O)cc21 [Flumioxazin, flumioxazin]
- inhibition at 2.5 g/ha ([1]; dose 2.5 g/ha): 0%
- inhibition at 100 g/ha ([3]; Crotalaria juncea, dose 100 g/ha, read-out: Growth inhibition rate (%) of sunn-hemp, Measured value): 0%
- inhibition at 200 g/ha ([5]; Sesbania, dose 200 g/ha, read-out: Growth inhibition rate (%) of rostrate sesbania, Measured value): 75%
- inhibition at 500 g/ha ([6]; dose 500 g/ha): 75%
- inhibition at 250 g/ha ([7]; Avena fatua, dose 250 g/ha, soil treatment, 28th day after treatment, read-out: Growth inhibition rate (%) of wild oat, Measured value): 90%
- inhibition at 250 g/ha ([17]; Sesbania, dose 250 g/ha, read-out: Growth inhibition rate (%) of rostrate sesbania, Measured value): 70%
- inhibition at 5 g/ha ([18]; dose 5 g/ha, 2.2 to 2.5 leaf-stage, 28th day after treatment): 20%

Molecule: CCOC(=O)COc1cc(-n2ncc(C(F)(F)F)c(C)c2=O)c(F)cc1Cl [Flufenpyr-ethyl, flufenpyr-ethyl]
- Growth inhibition rate (%) of sunn-hemp, Measured value ([3]; dose 50 g/ha): 0%
- Growth inhibition rate (%) of rostrate sesbania, Measured value ([5]; dose 5 g/ha): 0%

Molecule: C=CCOC(=O)C(C)(C)OC(=O)c1cc(-n2c(=O)cc(C(F)(F)F)n(C)c2=O)ccc1Cl [Butafenacil, butafenacil]
- inhibition at 100 g/ha (corn (Zea mays L.); dose 100 g/ha): 20%
- inhibition at 10 g/ha ([16]; dose 10 g/ha): 0%

Molecule: CCOC(=O)C(Cl)Cc1cc(-n2nc(C)n(C(F)F)c2=O)c(F)cc1Cl (stereo not drawn) [Carfentrazone-ethyl, carfentrazone-ethyl]
- inhibition at 27.4 g/ha [11]: 92%
- inhibition at 25 g/ha [13]: 65%
- inhibition at 20 g/ha [18]: 0%
- inhibition at 50 g/ha [18]: 0%

Molecule: CC(C)N(C)S(=O)(=O)NC(=O)c1cc(-n2c(=O)cc(C(F)(F)F)n(C)c2=O)c(F)cc1Cl [Saflufenacil, saflufenacil]
- inhibition at 25 g/ha [2]: 15%
- inhibition at 50 g/ha ([2]; dose 50 g/ha): 5%
- inhibition at 50 g/ha ([7]; Avena fatua, dose 50 g/ha, soil treatment, 28th day after treatment, read-out: Growth inhibition rate (%) of wild oat, Measured value): 0%
- inhibition at 5 g/ha ([8]; dose 5 g/ha): 0%
- inhibition at 10 g/ha ([8]; dose 10 g/ha): 65%
- inhibition at 100 g/ha ([10]; dose 100 g/ha): 20%
